# Patent US12180187B2, “1-phenyl-5-azinylpyrazolyl-3-oxyalkyl acids and their use for controlling unwanted plant growth” (BAYER AKTIENGESELLSCHAFT, priority 2019, dated 2024)
# Assays:
# AMARE [1] = experiment: Pre-emergence action at 320 g/ha against AMARE; type: in vivo, Amaranthus retroflexus; conditions: visual scoring after about 3 weeks vs untreated controls
# Summary of the method: (§1)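 Sow seeds, cover with soil, spray soil surface (WP/EC, 0.5% additive, 600 l/ha water), hold in greenhouse ~3 wk, then rate % activity visually against untreated controls.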
# MATIN [2] = experiment: Pre-emergence action against MATIN, 1280 g/ha; type: in vivo, Tripleurospermum inodorum (Matricaria inodora); conditions: scored visually after about 3 weeks vs untreated controls (100% = plants have died)
# Summary of the method: (§2)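 Activity was scored visually as percent versus untreated controls about 3 weeks after treatment (100% = dead plants, 0% = control-like). Compounds, formulated as wettable powders or emulsion concentrates, were sprayed onto the covering soil over freshly sown seeds in sandy loam, with 0.5% additive and 600 L/ha water.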
# STEME [3] = experiment: Pre-emergence action against STEME, 1280 g/ha; type: in vivo, Stellaria media; conditions: scored visually after about 3 weeks vs untreated controls (100% = plants have died)
# Summary of the method: as §2
# DIGSA [4] = experiment: Pre-emergence action against DIGSA, 1280 g/ha; type: in vivo, Digitaria sanguinalis; conditions: visual scoring after about 3 weeks vs untreated controls, 100% = plants have died, 0% = like control plants
# Summary of the method: as §2
# ABUTH = experiment: Post-emergence action against ABUTH, 1.28 kg/ha; type: in vivo, Abutilon theophrasti; conditions: dosage 1280 g/ha, visual rating about 3 weeks after treatment vs untreated controls (100% = plants died)
# Summary of the method: (§3)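 Foliar application at the one-leaf stage: compound as WP or EC in water with 0.5% additive, sprayed at 600 L/ha. Plants are kept about 3 weeks in the greenhouse, then % herbicidal action is estimated visually (100% = death).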
# LOLRI [5] = experiment: Pre-emergence action against LOLRI, 1280 g/ha; type: in vivo, Lolium rigidum; conditions: visual scoring after about 3 weeks vs untreated controls, 100% = plants have died, 0% = like control plants
# Summary of the method: as §2
# DIGSA [6] = experiment: Post-emergence action against DIGSA, 1.28 kg/ha; type: in vivo, Digitaria sanguinalis; conditions: dosage 1280 g/ha, visual rating about 3 weeks after treatment vs untreated controls
# Summary of the method: as §3
# DIGSA [7] = experiment: Pre-emergence action at 320 g/ha against DIGSA; type: in vivo, Digitaria sanguinalis; conditions: visual scoring after about 3 weeks vs untreated controls
# Summary of the method: as §1
# STEME [8] = experiment: Pre-emergence action at 320 g/ha against STEME; type: in vivo, Stellaria media; conditions: greenhouse, scored visually after about 3 weeks vs untreated controls, 100% = plants have died, 0% = like control plants
# From the text: b) Seeds of monocotyledonous and dicotyledonous weed plants and crop plants are placed in plastic or organic planting pots and covered with soil. The compounds of the invention, formulated in the form of wettable powders (WP) or as emulsion concentrates (EC), are then applied onto the surface of the covering soil as aqueous suspension or emulsion with addition of 0.5% additive at a water application rate of 600 l/ha (converted). After the treatment, the pots are placed in a greenhouse and kept under good growth conditions for the trial plants. After about 3 weeks, the effect of the preparations is scored visually in comparison with untreated controls as percentages. For example, 100% activity=the plants have died, 0% activity=like control plants. Tables 13 to 26 below show the effects of selected compounds of the general formula (I) on various harmful plants and at an application rate corresponding to 320 g/ha, which were obtained by the experimental procedure mentioned above.
# ALOMY = experiment: Post-emergence action against ALOMY, 320 g/ha; type: in vivo, Alopecurus myosuroides; conditions: dosage 320 g/ha, visual rating about 3 weeks after treatment vs untreated controls (100% = plants died)
# Summary of the method: (§4)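 Herbicidal effect is scored by eye about 3 weeks after a foliar spray and expressed as percent activity, with untreated plants as 0% and dead plants as 100%. Treatment is applied at the one-leaf stage of greenhouse-grown, soil-sown plants, at a water rate of 600 l/ha containing 0.5% additive.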
# MATIN [9] = experiment: Post-emergence action against MATIN, 1.28 kg/ha; type: in vivo, Tripleurospermum inodorum (Matricaria inodora); conditions: dosage 1280 g/ha, visual rating about 3 weeks after treatment vs untreated controls (100% = plants died)
# Summary of the method: as §3
# SETVI [10] = experiment: Pre-emergence action against SETVI, 1280 g/ha; type: in vivo, Setaria viridis; conditions: visual scoring after about 3 weeks vs untreated controls, 100% = plants have died, 0% = like control plants
# Summary of the method: as §2
# VERPE [11] = experiment: Post-emergence action against VERPE, 1.28 kg/ha; type: in vivo, Veronica persica; conditions: dosage 1280 g/ha, visual rating about 3 weeks after treatment vs untreated controls (100% = plants died)
# Summary of the method: as §3
# VIOTR [12] = experiment: Pre-emergence action at 320 g/ha against VIOTR; type: in vivo, Viola tricolor; conditions: dosage 320 g/ha
# Summary of the method: as §1
# POAAN [13] = experiment: Pre-emergence action against POAAN, 1280 g/ha; type: in vivo, Poa annua; conditions: visual scoring after about 3 weeks vs untreated controls, 100% = plants have died, 0% = like control plants
# Summary of the method: as §2
# HORMU = experiment: Post-emergence action at 320 g/ha against HORMU; type: in vivo, Hordeum murinum; conditions: visual rating about 3 weeks after treatment vs untreated controls
# From the text: (§5) Accordingly, the compounds of the invention have good herbicidal action against a broad spectrum of weed grasses and broad-leaved weeds and are therefore suitable for controlling unwanted vegetation by the post-emergence method. • b) Seeds of monocotyledonous and dicotyledonous weeds and crop plants are placed in sandy loam in plastic or organic planting pots, covered with soil and cultivated in a greenhouse under controlled growth conditions. 2 to 3 weeks after sowing, the test plants are treated at the one-leaf stage. The compounds of the invention, formulated in the form of wettable powders (WP) or as emulsion concentrates (EC), are then sprayed onto the green parts of the plants as aqueous suspension or emulsion with addition of 0.5% additive at a water application rate of 600 l/ha (converted). After the test plants have been kept in the greenhouse under optimum growth conditions for about 3 weeks, the activity of the preparations is rated visually in comparison to untreated controls. For example, 100% activity=the plants have died, 0% activity=like control plants. Tables 39 to 49 below show the effects of selected compounds of the general formula (I) according to Tables 1 and 2 on various harmful plants and at an application rate corresponding to 320 g/ha, which were obtained by the experimental procedure mentioned above.
# LOLRI [14] = experiment: Post-emergence action against LOLRI, 1.28 kg/ha; type: in vivo, Lolium rigidum; conditions: dosage 1280 g/ha, visual rating about 3 weeks after treatment vs untreated controls
# Summary of the method: as §3
# ECHCG = experiment: Pre-emergence action against ECHCG, 1280 g/ha; type: in vivo, Echinochloa crus-galli; conditions: visual scoring after about 3 weeks vs untreated controls, 100% = plants have died, 0% = like control plants
# Summary of the method: as §2
# SETVI [15] = experiment: Post-emergence action at 320 g/ha against SETVI; type: in vivo, Setaria viridis; conditions: visual rating about 3 weeks after treatment vs untreated controls
# Summary of the method: as §4
# SETVI [16] = experiment: Post-emergence action against SETVI, 1.28 kg/ha; type: in vivo, Setaria viridis; conditions: dosage 1280 g/ha, visual rating about 3 weeks after treatment vs untreated controls
# Summary of the method: as §3
# POLCO [17] = experiment: Pre-emergence action at 320 g/ha against POLCO; type: in vivo, Fallopia convolvulus (Polygonum convolvulus); conditions: visual scoring after about 3 weeks vs untreated controls
# Summary of the method: as §1
# AMARE [18] = experiment: Pre-emergence action against AMARE, 1280 g/ha; type: in vivo, Amaranthus retroflexus; conditions: scored visually after about 3 weeks vs untreated controls (100% = plants have died)
# Summary of the method: as §2
# STEME [19] = experiment: Post-emergence action against STEME, 1.28 kg/ha; type: in vivo, Stellaria media; conditions: dosage 1280 g/ha, visual rating about 3 weeks after treatment vs untreated controls (100% = plants died)
# Summary of the method: as §3
# SETVI [20] = experiment: Pre-emergence action at 320 g/ha against SETVI; type: in vivo, Setaria viridis; conditions: visual scoring after about 3 weeks vs untreated controls
# Summary of the method: as §1
# POLCO [21] = experiment: Post-emergence action at 320 g/ha against POLCO; type: in vivo, Fallopia convolvulus (Polygonum convolvulus); conditions: visual rating about 3 weeks after treatment vs untreated controls
# From the text: as §5
# VERPE [22] = experiment: Pre-emergence action against VERPE, 1280 g/ha; type: in vivo, Veronica persica; conditions: scored visually after about 3 weeks vs untreated controls (100% = plants have died)
# Summary of the method: as §2
# AMARE [23] = experiment: Post-emergence action against AMARE, 1.28 kg/ha; type: in vivo, Amaranthus retroflexus; conditions: dosage 1280 g/ha, visual rating about 3 weeks after treatment vs untreated controls (100% = plants died)
# Summary of the method: as §3
# POAAN [24] = experiment: Post-emergence action against POAAN, 1.28 kg/ha; type: in vivo, Poa annua; conditions: dosage 1280 g/ha, visual rating about 3 weeks after treatment vs untreated controls
# Summary of the method: as §3
# VIOTR [25] = experiment: Post-emergence action at 320 g/ha against VIOTR; type: in vivo, Viola tricolor; conditions: visual rating about 3 weeks after treatment vs untreated controls
# From the text: as §5
# AVEFA = experiment: Post-emergence action at 320 g/ha against AVEFA; type: in vivo; conditions: visual rating about 3 weeks after treatment vs untreated controls
# Summary of the method: as §4
smiles,measurement,setting,value
COC(=O)C(C)Oc1nn(-c2ccccc2)c(-c2ccnc(Cl)c2)c1Cl (stereo not drawn) [VIII-001],Pre-emergence action against AMARE in %,AMARE [1],90%
same,Pre-emergence action against MATIN,MATIN [2],90%
same,Pre-emergence action against STEME,STEME [3],90%
same,Pre-emergence action against DIGSA,DIGSA [4],90%
same,Post-emergence action against ABUTH,ABUTH,90%
same,Pre-emergence action against LOLRI,LOLRI [5],100%
same,Post-emergence action against DIGSA,DIGSA [6],90%
same,Pre-emergence action against DIGSA in %,DIGSA [7],100%
same,Pre-emergence action at 320 g/ha against STEME in %,STEME [8],90%
same,Post-emergence action against ALOMY,ALOMY,90%
same,Post-emergence action against MATIN,MATIN [9],90%
same,Pre-emergence action against SETVI,SETVI [10],100%
same,Post-emergence action against VERPE,VERPE [11],100%
same,Pre-emergence action against VIOTR in %,VIOTR [12],90%
same,Pre-emergence action against POAAN,POAAN [13],100%
same,Post-emergence action against HORMU in %,HORMU,80%
same,Post-emergence action against LOLRI,LOLRI [14],90%
same,Pre-emergence action against ECHCG,ECHCG,100%
same,Post-emergence action against SETVI in %,SETVI [15],80%
same,Post-emergence action against SETVI,SETVI [16],90%
same,Pre-emergence action against POLCO in %,POLCO [17],90%
same,Pre-emergence action against AMARE,AMARE [18],90%
same,Post-emergence action against STEME,STEME [19],100%
same,Pre-emergence action against SETVI in %,SETVI [20],100%
same,Post-emergence action against POLCO in %,POLCO [21],90%
same,Pre-emergence action against VERPE,VERPE [22],100%
same,Post-emergence action against AMARE,AMARE [23],90%
same,Post-emergence action against POAAN,POAAN [24],100%
same,Post-emergence action against VIOTR in %,VIOTR [25],80%
same,Post-emergence action against AVEFA in %,AVEFA,80%
